Patent US5880103A, “Immunomodulatory peptides” (President and Fellows of Harvard College, priority 1995, dated 1999)

Target: T1, HLA-DR1 (Homo sapiens, UniProt P01903+P01911, A100R/D57E/F55L/F60I/F76Y/I96L/L162R/M171V/P40L/Q125E/R42F/V115G/Y59C)
T1 construct: made in house; host or cells: Sf9 insect cells
Assay: Competition of synthetic peptides against 125I-labeled HA 307-319 for binding to "empty" HLA-DR1

Ki	Compound	relative binding affinity to DR1 (in words) (competitor peptides vs HA 307-319, "empty" DR1, at first approximation)
> 10 µM	CSCC[C@H](NC(=O)[C@H](CCCNC(=N)N)NC(=O)[C@H](CCSC)NC(=O)[C@H](CCCCN)NC(=O)[C@H](CO)NC(=O)[C@@H](NC(=O)[C@@H]1CCCN1C(=O)[C@H](CCCCN)NC(=O)[C@@H]1CCCN1C(=O)[C@@H]1CCCN1C(=O)[C@H](CCCCN)NC(=O)[C@@H]1CCCN1C(=O)[C@@H](N)CC(C)C)C(C)C)C(=O)N[C@@H](C)C(=O)N[C@H](C(=O)O)[C@@H](C)O [Ii 97-111]	
	Ii 107-120: invariant chain peptide named in the text as highest-affinity competitor; probably the Ii 106-120 entry of Table 2 (MRMATPLLMQALPM)	highest affinity of all the competitor peptides measured
